The record followed here is patent publication US20250043250A1, “COMPOSITIONS AND METHODS FOR EXPANDING KERATINOCYTES” (STEMCELL Technologies Canada Inc., priority 2021, published 2025).

One assay relates to TP63. Briefly: FACS analysis of TP63+ cells. In kind it is cell-based, human. Conditions: 1C iPS derived skin organoid cells, HKGS medium with or without supplement (FIG. 12). From the text:
WLS-1C iPS cells were formed into hair-bearing skin organoids as described herein and dissociated prior to plating the cells in EpiLife HKGS, or in EpiLife HKGS supplemented with the indicated small molecules. The cells were stained for TP63 expression and analyzed by FACS.
The ability of a commercially available medium to expand PSC-derived keratinocytes could be somewhat restored upon supplementation with one or more small molecule inhibitors, but not to the levels of DermaCult™ (FIG. 11). Specifically, HKGS medium was supplemented with A83-01, DAPT, Y-27632, or all three of A83-01, DAPT, and Y-27632. […] These findings were confirmed in a different experiment where 1C iPS cells were cultured in the foregoing media conditions and analyzed for p63 expression, to distinguish keratinocytes from other cell types included in the PSC-derived skin organoids, such as fibroblasts (FIG. 12).
Background: In flow cytometry, cells or beads pass a laser one at a time.

Assay [1] relates to PSC-derived keratinocytes. Briefly: Adherent monolayer culture of dissociated PSC-derived hair-bearing skin organoid cells: colony emergence and morphology. The following applies: H9 ES and 1C iPS derived cells, HKGS medium supplemented with the small molecule(s) (FIG. 11). It counts as cell-based, human. The method, then:
The aggregates of Example 1 were plated under non-adherent conditions in an AggreWell™ or a 96-well plate, and cultured for 12 days in a skin organoid induction medium, such as STEMdiff™ Skin Organoid Induction Medium (STEMCELL Technologies). Following, the skin organoids are transferred into STEMdiff™ Skin Organoids Maturation Medium (STEMCELL Technologies) for at least 8 weeks, adding or changing the medium every 3-4 days. After the skin organoids have matured, preferably presenting as hair-bearing skin organoids (e.g. hair placode present skin organoids), they are dissociated overnight in a 37 degree incubator in a Dispase solution. […]
Various commercially available cell culture media are marketed for the purpose of culturing human epidermal keratinocytes: EpiLife™ Defined Growth Supplement for use with EpiLife™ medium; Gibco™ Human Keratinocyte Growth Supplement for use with EpiLife medium or Medium 154; and Cnt-57 Epithelial Proliferation Medium. […] Population doublings were also assessed over several weeks for keratinocytes grown from various PSC lines in a culture medium of this disclosure in comparison to EpiLife EDGS and EpiLife HKGS. […]

With `C[C@@H](N)[C@H]1CC[C@H](C(=O)Nc2ccncc2)CC1` [Y-27632], the “emergence of p63+ cells” value with TP63 is given as “emergence of comparable numbers of p63+ cells”. Also, the “emergence of colonies in supplemented HKGS medium” value in assay [1] is given as “emergence of colonies”.
